Results published in ChEMBL document CHEMBL3797052 (Eur J Med Chem, 2016).

Columns and labels:
SK-MEL-5 = experiment: Antiproliferative activity against human SK-MEL-5 cells assessed as cell growth at 10^-4 M after 48 hrs by sulforhodamine B assay; format: functional; conditions: SK-MEL-5, 48 h, read-out: Activity
NCI-H23 = experiment: Antiproliferative activity against human NCI-H23 cells assessed as cell growth at 10^-6 M after 48 hrs by sulforhodamine B assay; format: functional; conditions: NCI-H23, 48 h, read-out: Activity
SK-MEL-2 = experiment: Antiproliferative activity against human SK-MEL-2 cells assessed as cell growth at 10^-8 M after 48 hrs by sulforhodamine B assay; format: functional; conditions: SK-MEL-2, 48 h, read-out: Activity
[1] = Antiproliferative activity against human COLO205 cells assessed as cell growth at 10^-4 M after 48 hrs by sulforhodamine B assay; format: functional; conditions: COLO 205, 48 h, read-out: Activity
SK-MEL-28 [2] = experiment: Antiproliferative activity against human SK-MEL-28 cells assessed as cell growth at 10^-7 M after 48 hrs by sulforhodamine B assay; format: functional; conditions: SK-MEL-28, 48 h, read-out: Activity
[3] = Antiproliferative activity against human BT549 cells assessed as cell growth at 10^-7 M after 48 hrs by sulforhodamine B assay; format: functional; conditions: BT-549, 48 h, read-out: Activity
[4] = Antiproliferative activity against human RPMI8226 cells assessed as cell growth at 10^-6 M after 48 hrs by sulforhodamine B assay; format: functional; conditions: RPMI-8226, 48 h, read-out: Activity
MCF7 = experiment: Antiproliferative activity against human MCF7 cells assessed as growth inhibition after 48 hrs by sulforhodamine B assay; format: functional; conditions: MCF7, 48 h
[5] = Antiproliferative activity against human DU145 cells assessed as cell growth at 10^-7 M after 48 hrs by sulforhodamine B assay; format: functional; conditions: DU-145, 48 h, read-out: Activity
[6] = Antiproliferative activity against human HL-60(TB) cells assessed as cell growth at 10^-4 M after 48 hrs by sulforhodamine B assay; format: functional; conditions: HL-60, 48 h, read-out: Activity
SK-MEL-28 [7] = experiment: Antiproliferative activity against human SK-MEL-28 cells assessed as cell growth at 10^-4 M after 48 hrs by sulforhodamine B assay; format: functional; conditions: SK-MEL-28, 48 h, read-out: Activity
[8] = Antiproliferative activity against human UACC257 cells assessed as cell growth at 10^-8 M after 48 hrs by sulforhodamine B assay; format: functional; conditions: UACC-257, 48 h, read-out: Activity
[9] = Antiproliferative activity against human RXF393 cells assessed as cell growth at 10^-4 M after 48 hrs by sulforhodamine B assay; format: functional; conditions: RXF 393, 48 h, read-out: Activity
[10] = Antiproliferative activity against human UACC62 cells assessed as growth inhibition after 48 hrs by sulforhodamine B assay; format: functional; conditions: UACC-62, 48 h
[11] = Antiproliferative activity against human OVCAR3 cells assessed as cell growth at 10^-6 M after 48 hrs by sulforhodamine B assay; format: functional; conditions: OVCAR-3, 48 h, read-out: Activity
[12] = Antiproliferative activity against human SW620 cells assessed as growth inhibition after 48 hrs by sulforhodamine B assay; format: functional; conditions: SW-620, 48 h
MDA-MB-468 = experiment: Antiproliferative activity against human MDA-MB-468 cells assessed as growth inhibition after 48 hrs by sulforhodamine B assay; format: functional; conditions: MDA-MB-468, 48 h
[13] = Antiproliferative activity against human OVCAR8 cells assessed as growth inhibition after 48 hrs by sulforhodamine B assay; format: functional; conditions: OVCAR-8, 48 h
[14] = target: Serine/threonine-protein kinase B-raf (Homo sapiens, UniProt P15056, V600E); experiment: Inhibition of BRAF V600E mutant (unknown origin) measured after 40 mins by scintillation counting
Serine/threonine-protein kinase B-raf, sequence (P15056 2-766 V600E limits assumed): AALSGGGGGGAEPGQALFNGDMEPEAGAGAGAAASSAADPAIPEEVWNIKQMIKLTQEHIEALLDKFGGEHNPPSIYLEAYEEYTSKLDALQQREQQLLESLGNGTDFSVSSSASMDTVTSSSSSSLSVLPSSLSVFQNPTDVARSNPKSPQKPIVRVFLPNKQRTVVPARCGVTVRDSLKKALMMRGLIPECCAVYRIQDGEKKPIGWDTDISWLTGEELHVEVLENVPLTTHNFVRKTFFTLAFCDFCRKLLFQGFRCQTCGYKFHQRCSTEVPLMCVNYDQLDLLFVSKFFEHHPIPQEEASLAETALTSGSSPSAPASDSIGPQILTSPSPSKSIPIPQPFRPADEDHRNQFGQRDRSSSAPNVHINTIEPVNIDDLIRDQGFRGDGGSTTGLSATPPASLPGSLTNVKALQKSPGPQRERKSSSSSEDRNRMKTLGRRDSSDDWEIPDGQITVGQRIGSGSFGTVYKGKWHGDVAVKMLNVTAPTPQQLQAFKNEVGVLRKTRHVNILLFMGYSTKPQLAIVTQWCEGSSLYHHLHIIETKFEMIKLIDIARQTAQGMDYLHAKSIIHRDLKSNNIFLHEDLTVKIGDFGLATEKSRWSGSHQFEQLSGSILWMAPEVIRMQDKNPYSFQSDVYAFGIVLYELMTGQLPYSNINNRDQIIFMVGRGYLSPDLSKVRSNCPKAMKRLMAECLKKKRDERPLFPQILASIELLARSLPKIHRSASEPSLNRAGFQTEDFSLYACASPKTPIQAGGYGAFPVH

CCRF-CEM = experiment: Antiproliferative activity against human CCRF-CEM cells assessed as cell growth at 10^-4 M after 48 hrs by sulforhodamine B assay; format: functional; conditions: read-out: Activity
[15] = Antiproliferative activity against human Caki1 cells assessed as cell growth at 10^-7 M after 48 hrs by sulforhodamine B assay; format: functional; conditions: CAKI-1, 48 h, read-out: Activity
U-251 = experiment: Antiproliferative activity against human U251 cells assessed as cell growth at 10^-8 M after 48 hrs by sulforhodamine B assay; format: functional; conditions: U-251, 48 h, read-out: Activity
CYP3A4 = CYP3A4 (Homo sapiens, UniProt P08684); experiment: Inhibition of recombinant human CYP3A4 assessed as remaining enzyme activity using CYP3A4 blue as substrate at 10 uM after 5 mins in presence of NADP by fluorescence plate reader analysis; format: ADME; conditions: recombinant human CYP3A4, probe CYP3A4 blue, read-out: Activity
CYP3A4, sequence (P08684 whole entry): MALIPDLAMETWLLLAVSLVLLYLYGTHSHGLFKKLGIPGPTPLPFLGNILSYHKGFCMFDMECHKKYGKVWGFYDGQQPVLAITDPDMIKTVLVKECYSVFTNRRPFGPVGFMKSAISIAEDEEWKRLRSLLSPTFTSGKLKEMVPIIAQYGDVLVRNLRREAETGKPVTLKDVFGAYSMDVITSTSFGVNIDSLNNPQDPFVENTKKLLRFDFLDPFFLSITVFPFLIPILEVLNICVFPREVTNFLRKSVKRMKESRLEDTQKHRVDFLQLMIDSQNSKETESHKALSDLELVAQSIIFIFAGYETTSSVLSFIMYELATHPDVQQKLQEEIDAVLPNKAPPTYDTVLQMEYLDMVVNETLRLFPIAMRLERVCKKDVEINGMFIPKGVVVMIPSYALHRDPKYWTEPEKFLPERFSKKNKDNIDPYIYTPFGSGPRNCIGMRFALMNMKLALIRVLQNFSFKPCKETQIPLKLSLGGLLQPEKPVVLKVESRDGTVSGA

[16] = Antiproliferative activity against human HOP92 cells assessed as cell growth at 10^-6 M after 48 hrs by sulforhodamine B assay; format: functional; conditions: HOP-92, 48 h, read-out: Activity
[17] = Antiproliferative activity against human IGROV1 cells assessed as cell growth at 10^-4 M after 48 hrs by sulforhodamine B assay; format: functional; conditions: IGROV-1, 48 h, read-out: Activity
A498 = experiment: Antiproliferative activity against human A498 cells assessed as cell growth at 10^-7 M after 48 hrs by sulforhodamine B assay; format: functional; conditions: A498, 48 h, read-out: Activity
[18] = Antiproliferative activity against human SNB75 cells assessed as cell growth at 10^-8 M after 48 hrs by sulforhodamine B assay; format: functional; conditions: SNB-75, 48 h, read-out: Activity
[19] = Antiproliferative activity against human HOP92 cells assessed as cell growth at 10^-4 M after 48 hrs by sulforhodamine B assay; format: functional; conditions: HOP-92, 48 h, read-out: Activity
T47D = experiment: Antiproliferative activity against human T47D cells assessed as cell growth at 10^-7 M after 48 hrs by sulforhodamine B assay; format: functional; conditions: read-out: Activity
[20] = Antiproliferative activity against human HOP62 cells assessed as growth inhibition after 48 hrs by sulforhodamine B assay; format: functional; conditions: HOP-62, 48 h
SN12C = experiment: Antiproliferative activity against human SN12C cells assessed as cell growth at 10^-7 M after 48 hrs by sulforhodamine B assay; format: functional; conditions: read-out: Activity
[21] = Antiproliferative activity against human HCT15 cells assessed as growth inhibition after 48 hrs by sulforhodamine B assay; format: functional; conditions: HCT-15, 48 h
K562 = experiment: Antiproliferative activity against human K562 cells assessed as cell growth at 10^-4 M after 48 hrs by sulforhodamine B assay; format: functional; conditions: K562, 48 h, read-out: Activity
[22] = read-out: LC50 (the source's name)

Question: Which growth at 100 µM (SK-MEL-5) does the source give for `CNC(=O)c1cc(Oc2ccc3nc(NC(=O)Nc4cc(C(F)(F)F)cc(C(F)(F)F)c4)sc3c2)ccn1` here?
Answer: -72%

Question: What about the growth at 1 µM (NCI-H23) of the same compound?
Answer: 36%

Question: What about the growth at 0.01 µM (SK-MEL-2) of the same compound?
Answer: 90%

Question: And the growth at 100 µM [1]?
Answer: -65%

Question: And the growth at 0.1 µM (SK-MEL-28 [2])?
Answer: 96%

Question: What about the growth at 0.1 µM [3] of the same compound?
Answer: 96%

Question: What about the growth at 1 µM [4] of the same compound?
Answer: 51%

Question: What about the GI50 (MCF7) of the same compound?
Answer: 1.05 µM

Question: What about the TGI (MCF7) of the same compound?
Answer: 2.93 µM

Question: And the CC50 (MCF7; [22])?
Answer: 8.23 µM

Question: And the growth at 0.1 µM [5]?
Answer: 97%

Question: And the growth at 100 µM [6]?
Answer: -59%

Question: What about the growth at 100 µM (SK-MEL-28 [7]) of the same compound?
Answer: -70%

Question: What about the growth at 0.01 µM [8] of the same compound?
Answer: 102%

Question: And the growth at 100 µM [9]?
Answer: -70%

Question: What about the GI50 [10] of the same compound?
Answer: 0.583 µM

Question: And the TGI [10]?
Answer: 2.1 µM

Question: And the CC50 [10, 22]?
Answer: 5.77 µM

Question: And the growth at 1 µM [11]?
Answer: 52%

Question: And the GI50 [12]?
Answer: 1.56 µM

Question: What about the TGI [12] of the same compound?
Answer: 3.29 µM

Question: And the CC50 [12, 22]?
Answer: 6.97 µM

Question: What about the GI50 (MDA-MB-468) of the same compound?
Answer: 0.399 µM

Question: And the TGI (MDA-MB-468)?
Answer: 1.75 µM

Question: What about the CC50 (MDA-MB-468; [22]) of the same compound?
Answer: 6.08 µM

Question: And the GI50 [13]?
Answer: 1.33 µM

Question: What about the LC50 [13] of the same compound?
Answer: 5.47 µM

Question: What about the TGI [13] of the same compound?
Answer: 2.69 µM

Question: And the IC50 [14]?
Answer: 1.23 µM

Question: And the growth at 100 µM (CCRF-CEM)?
Answer: -36%

Question: And the growth at 0.1 µM [15]?
Answer: 94%

Question: And the growth at 0.01 µM (U-251)?
Answer: 103%

Question: And the activity at 5 min, 10 µM (CYP3A4)?
Answer: 50.6%

Question: What about the growth at 1 µM [16] of the same compound?
Answer: -2%

Question: What about the growth at 100 µM [17] of the same compound?
Answer: -60%

Question: What about the growth at 0.1 µM (A498) of the same compound?
Answer: 111%

Question: What about the growth at 0.01 µM [18] of the same compound?
Answer: 77%

Question: And the growth at 100 µM [19]?
Answer: -77%

Question: What about the growth at 0.1 µM (T47D) of the same compound?
Answer: 89%

Question: What about the GI50 [20] of the same compound?
Answer: 1.15 µM

Question: And the LC50 [20]?
Answer: 6.79 µM

Question: And the TGI [20]?
Answer: 2.8 µM

Question: And the growth at 0.1 µM (SN12C)?
Answer: 104%

Question: What about the GI50 [21] of the same compound?
Answer: 1.5 µM

Question: And the LC50 [21]?
Answer: 7.32 µM

Question: What about the TGI [21] of the same compound?
Answer: 3.31 µM

Question: And the growth at 100 µM (K562)?
Answer: -35%
